# Source: publication PMC8333425, “Discovery of a dual Ras and ARF6 inhibitor from a GPCR endocytosis screen” (Nature Communications, 2021)
# Key:
# Test in all cases: KINOMEscan kinase binding assay
# [1] = biological target: T1, 384 kinases from the human genome (Homo sapiens, UniProt Q15208); conditions: kinase NDR1 (Entrez STK38)
# T1 construct: purchased Eurofin/DiscoverX
# Method in brief: (§1)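 A panel of 384 human kinases was profiled by KINOMEscan binding in the presence of 10 µM compound. Kinase–ligand binding was given as percent of DMSO control, averaged from duplicates in a single run, with an S(10) selectivity score.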
# [2] = biological target: T2, 384 kinases from the human genome (Homo sapiens, UniProt P42685); conditions: kinase FRK (Entrez FRK)
# T2 construct: purchased Eurofin/DiscoverX
# Method in brief: as §1
# [3] = biological target: T3, 384 kinases from the human genome (Homo sapiens, UniProt P57058); conditions: kinase HUNK (Entrez HUNK)
# T3 construct: purchased Eurofin/DiscoverX
# T3 sequence (P57058 whole entry): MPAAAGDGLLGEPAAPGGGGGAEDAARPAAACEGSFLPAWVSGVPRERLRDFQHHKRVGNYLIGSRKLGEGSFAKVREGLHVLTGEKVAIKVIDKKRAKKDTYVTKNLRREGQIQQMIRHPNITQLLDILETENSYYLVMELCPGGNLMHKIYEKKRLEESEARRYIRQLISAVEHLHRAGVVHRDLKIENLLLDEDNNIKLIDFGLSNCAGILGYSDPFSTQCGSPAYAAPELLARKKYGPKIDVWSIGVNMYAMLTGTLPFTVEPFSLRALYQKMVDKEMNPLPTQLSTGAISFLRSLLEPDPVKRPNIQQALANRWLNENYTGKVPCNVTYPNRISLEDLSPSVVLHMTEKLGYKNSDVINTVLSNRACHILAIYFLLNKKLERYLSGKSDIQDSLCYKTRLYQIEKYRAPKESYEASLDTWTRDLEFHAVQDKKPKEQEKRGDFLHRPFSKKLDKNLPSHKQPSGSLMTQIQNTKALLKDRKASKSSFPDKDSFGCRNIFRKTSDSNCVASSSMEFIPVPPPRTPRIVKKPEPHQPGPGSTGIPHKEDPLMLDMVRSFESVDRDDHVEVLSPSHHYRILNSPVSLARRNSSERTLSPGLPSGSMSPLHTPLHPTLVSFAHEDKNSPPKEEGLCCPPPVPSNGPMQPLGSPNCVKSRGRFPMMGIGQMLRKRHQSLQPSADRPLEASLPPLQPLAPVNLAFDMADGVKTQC
# Method in brief: as §1
# [4] = biological target: T4, 384 kinases from the human genome (Homo sapiens, UniProt P49674); conditions: kinase CSNK1E (Entrez CSNK1E)
# T4 construct: purchased Eurofin/DiscoverX
# T4 sequence (P49674 whole entry): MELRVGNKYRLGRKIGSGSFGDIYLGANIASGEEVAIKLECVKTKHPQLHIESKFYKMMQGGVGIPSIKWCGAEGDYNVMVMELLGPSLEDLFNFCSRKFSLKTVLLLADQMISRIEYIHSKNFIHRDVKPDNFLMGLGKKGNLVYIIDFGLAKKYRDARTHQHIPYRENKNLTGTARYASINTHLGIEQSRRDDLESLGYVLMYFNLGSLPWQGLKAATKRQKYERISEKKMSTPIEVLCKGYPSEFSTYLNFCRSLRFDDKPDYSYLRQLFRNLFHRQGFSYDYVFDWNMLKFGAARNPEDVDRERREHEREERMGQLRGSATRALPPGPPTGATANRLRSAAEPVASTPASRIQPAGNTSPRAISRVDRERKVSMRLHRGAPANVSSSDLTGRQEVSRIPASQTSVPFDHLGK
# Method in brief: as §1
# [5] = biological target: T5, 384 kinases from the human genome (Homo sapiens, UniProt P49336); conditions: kinase CDK8 (Entrez CDK8)
# T5 construct: purchased Eurofin/DiscoverX
# Method in brief: as §1
# [6] = biological target: T6, 384 kinases from the human genome (Homo sapiens, UniProt O76039); conditions: kinase CDKL5 (Entrez CDKL5)
# T6 construct: purchased Eurofin/DiscoverX
# Method in brief: as §1
# [7] = biological target: T7, 384 kinases from the human genome (Homo sapiens, UniProt Q99683); conditions: kinase ASK1 (Entrez MAP3K5)
# T7 construct: purchased Eurofin/DiscoverX
# Method in brief: as §1
# [8] = biological target: T8, 384 kinases from the human genome (Homo sapiens, UniProt P09769); conditions: kinase FGR (Entrez FGR)
# T8 construct: purchased Eurofin/DiscoverX
# Method in brief: as §1
# [9] = biological target: T9, 384 kinases from the human genome (Homo sapiens, UniProt Q8NEV4); conditions: kinase MYO3A (Entrez MYO3A)
# T9 construct: purchased Eurofin/DiscoverX
# Method in brief: as §1
# [10] = biological target: T10, 384 kinases from the human genome (Homo sapiens, UniProt Q9NQU5); conditions: kinase PAK6 (Entrez PAK6)
# T10 construct: purchased Eurofin/DiscoverX
# T10 sequence (Q9NQU5 whole entry): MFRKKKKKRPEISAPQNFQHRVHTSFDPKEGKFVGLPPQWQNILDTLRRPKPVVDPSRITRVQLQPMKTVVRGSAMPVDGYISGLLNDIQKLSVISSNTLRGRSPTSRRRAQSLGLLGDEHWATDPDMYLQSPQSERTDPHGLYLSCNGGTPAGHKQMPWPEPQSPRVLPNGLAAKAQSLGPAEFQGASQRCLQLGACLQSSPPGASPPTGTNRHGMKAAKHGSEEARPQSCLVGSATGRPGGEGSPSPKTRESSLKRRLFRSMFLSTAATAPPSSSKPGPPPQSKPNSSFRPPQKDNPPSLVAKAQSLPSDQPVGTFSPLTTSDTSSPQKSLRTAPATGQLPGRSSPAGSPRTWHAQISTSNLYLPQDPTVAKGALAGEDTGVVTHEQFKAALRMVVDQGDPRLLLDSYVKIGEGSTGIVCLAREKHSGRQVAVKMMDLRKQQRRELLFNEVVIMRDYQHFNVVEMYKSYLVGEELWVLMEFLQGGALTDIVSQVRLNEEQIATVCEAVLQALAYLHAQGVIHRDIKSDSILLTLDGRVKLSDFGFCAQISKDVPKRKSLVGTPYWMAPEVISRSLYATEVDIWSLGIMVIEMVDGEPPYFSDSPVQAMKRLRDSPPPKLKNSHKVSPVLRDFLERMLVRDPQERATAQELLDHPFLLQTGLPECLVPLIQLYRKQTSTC
# Method in brief: as §1
# [11] = biological target: T11, 384 kinases from the human genome (Homo sapiens, UniProt Q13177); conditions: kinase PAK2 (Entrez PAK2)
# T11 construct: purchased Eurofin/DiscoverX
# Method in brief: as §1
# [12] = biological target: T12, 384 kinases from the human genome (Homo sapiens, UniProt P06213); conditions: kinase INSR (Entrez INSR)
# T12 construct: purchased Eurofin/DiscoverX
# Method in brief: as §1
# [13] = biological target: T13, 384 kinases from the human genome (Homo sapiens, UniProt Q99759); conditions: kinase MAP3K3 (Entrez MAP3K3)
# T13 construct: purchased Eurofin/DiscoverX
# Method in brief: as §1
# [14] = biological target: T14, 384 kinases from the human genome (Homo sapiens, UniProt Q99558); conditions: kinase NIK (Entrez MAP3K14)
# T14 construct: purchased Eurofin/DiscoverX
# Method in brief: as §1
# [15] = biological target: T15, 384 kinases from the human genome (Homo sapiens, UniProt Q9NRP7); conditions: kinase STK36 (Entrez STK36)
# T15 construct: purchased Eurofin/DiscoverX
# Method in brief: as §1
# [16] = biological target: T16, 384 kinases from the human genome (Homo sapiens, UniProt P07948); conditions: kinase LYN (Entrez LYN)
# T16 construct: purchased Eurofin/DiscoverX
# T16 sequence (P07948 whole entry): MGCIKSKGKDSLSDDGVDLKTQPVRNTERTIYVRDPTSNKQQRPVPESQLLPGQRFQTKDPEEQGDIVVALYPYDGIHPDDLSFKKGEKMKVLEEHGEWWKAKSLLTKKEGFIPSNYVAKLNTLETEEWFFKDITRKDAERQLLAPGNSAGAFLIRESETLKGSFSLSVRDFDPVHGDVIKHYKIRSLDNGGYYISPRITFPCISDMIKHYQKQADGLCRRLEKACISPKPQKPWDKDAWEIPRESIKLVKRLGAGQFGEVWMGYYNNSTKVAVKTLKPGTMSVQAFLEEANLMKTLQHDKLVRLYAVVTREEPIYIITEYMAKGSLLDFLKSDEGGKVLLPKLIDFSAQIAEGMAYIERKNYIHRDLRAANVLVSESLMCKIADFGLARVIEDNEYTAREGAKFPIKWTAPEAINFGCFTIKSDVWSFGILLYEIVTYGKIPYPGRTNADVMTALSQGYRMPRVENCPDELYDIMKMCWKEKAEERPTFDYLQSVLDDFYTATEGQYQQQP
# Method in brief: as §1
# [17] = biological target: T17, 384 kinases from the human genome (Homo sapiens, UniProt Q9Y2I7); conditions: kinase PIKFYVE (Entrez PIKFYVE)
# T17 construct: purchased Eurofin/DiscoverX
# Method in brief: as §1
# [18] = biological target: T18, 384 kinases from the human genome (Homo sapiens, UniProt Q92918); conditions: kinase HPK1 (Entrez MAP4K1)
# T18 construct: purchased Eurofin/DiscoverX
# T18 sequence (Q92918 whole entry): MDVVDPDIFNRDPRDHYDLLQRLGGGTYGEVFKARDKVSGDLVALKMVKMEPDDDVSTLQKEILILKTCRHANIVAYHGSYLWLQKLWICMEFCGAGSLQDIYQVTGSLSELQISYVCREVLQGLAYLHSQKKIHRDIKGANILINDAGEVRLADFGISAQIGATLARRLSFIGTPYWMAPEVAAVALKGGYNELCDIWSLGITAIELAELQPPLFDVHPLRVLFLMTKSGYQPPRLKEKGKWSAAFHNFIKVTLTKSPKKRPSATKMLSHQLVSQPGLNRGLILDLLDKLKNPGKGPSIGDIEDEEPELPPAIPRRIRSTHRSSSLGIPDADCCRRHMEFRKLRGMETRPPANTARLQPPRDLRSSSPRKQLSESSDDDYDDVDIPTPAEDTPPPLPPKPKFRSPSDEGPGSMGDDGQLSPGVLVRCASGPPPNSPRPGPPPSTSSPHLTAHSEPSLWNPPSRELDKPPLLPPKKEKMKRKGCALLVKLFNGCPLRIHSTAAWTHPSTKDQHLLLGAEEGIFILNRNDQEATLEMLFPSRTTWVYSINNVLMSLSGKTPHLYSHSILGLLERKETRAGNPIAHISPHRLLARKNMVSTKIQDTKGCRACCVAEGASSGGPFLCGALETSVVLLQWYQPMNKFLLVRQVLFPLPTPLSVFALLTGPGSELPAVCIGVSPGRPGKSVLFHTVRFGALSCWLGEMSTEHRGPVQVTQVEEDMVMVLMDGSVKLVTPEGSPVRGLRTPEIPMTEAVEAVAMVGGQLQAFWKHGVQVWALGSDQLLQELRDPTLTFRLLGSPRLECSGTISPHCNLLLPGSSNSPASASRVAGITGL
# Method in brief: as §1
# [19] = biological target: T19, 384 kinases from the human genome (Homo sapiens, UniProt Q9Y6R4); conditions: kinase MAP3K4 (Entrez MAP3K4)
# T19 construct: purchased Eurofin/DiscoverX
# Method in brief: as §1
# [20] = biological target: T20, 384 kinases from the human genome (Homo sapiens, UniProt P53778); conditions: kinase p38-gamma (Entrez MAPK12)
# T20 construct: purchased Eurofin/DiscoverX
# T20 sequence (P53778 whole entry): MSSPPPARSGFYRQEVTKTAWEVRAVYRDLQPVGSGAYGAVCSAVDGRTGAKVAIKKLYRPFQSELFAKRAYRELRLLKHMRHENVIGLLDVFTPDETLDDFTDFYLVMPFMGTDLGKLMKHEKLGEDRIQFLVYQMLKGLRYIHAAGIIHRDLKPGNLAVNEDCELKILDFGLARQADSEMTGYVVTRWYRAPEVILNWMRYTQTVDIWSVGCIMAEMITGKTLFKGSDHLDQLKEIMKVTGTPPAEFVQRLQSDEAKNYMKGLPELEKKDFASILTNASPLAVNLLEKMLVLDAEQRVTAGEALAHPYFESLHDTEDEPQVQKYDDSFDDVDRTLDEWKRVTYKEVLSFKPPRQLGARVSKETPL
# Method in brief: as §1
# [21] = biological target: T21, 384 kinases from the human genome (Homo sapiens, UniProt Q8IVH8); conditions: kinase MAP4K3 (Entrez MAP4K3)
# T21 construct: purchased Eurofin/DiscoverX
# Method in brief: as §1
# [22] = biological target: T22, 384 kinases from the human genome (Homo sapiens, UniProt Q05655); conditions: kinase PRKCD (Entrez PRKCD)
# T22 construct: purchased Eurofin/DiscoverX
# T22 sequence (Q05655 whole entry): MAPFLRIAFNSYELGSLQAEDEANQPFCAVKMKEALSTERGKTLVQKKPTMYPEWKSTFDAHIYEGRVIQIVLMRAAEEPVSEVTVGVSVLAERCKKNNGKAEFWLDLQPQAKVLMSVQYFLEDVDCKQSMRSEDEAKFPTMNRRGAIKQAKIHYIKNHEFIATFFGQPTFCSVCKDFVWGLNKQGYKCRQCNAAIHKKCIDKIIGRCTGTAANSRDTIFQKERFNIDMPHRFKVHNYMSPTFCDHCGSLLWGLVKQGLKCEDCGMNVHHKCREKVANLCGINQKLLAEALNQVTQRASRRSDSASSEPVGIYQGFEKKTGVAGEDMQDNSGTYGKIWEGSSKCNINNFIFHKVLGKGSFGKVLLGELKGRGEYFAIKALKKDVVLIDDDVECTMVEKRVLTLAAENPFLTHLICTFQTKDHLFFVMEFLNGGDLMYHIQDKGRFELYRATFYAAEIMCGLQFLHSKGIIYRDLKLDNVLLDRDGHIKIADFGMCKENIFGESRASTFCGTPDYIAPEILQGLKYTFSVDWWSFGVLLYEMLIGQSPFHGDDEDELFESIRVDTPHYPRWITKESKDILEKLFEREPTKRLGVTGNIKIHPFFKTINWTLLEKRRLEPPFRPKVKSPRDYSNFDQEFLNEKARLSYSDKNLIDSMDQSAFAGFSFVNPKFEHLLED
# Method in brief: as §1
# [23] = biological target: T23, 384 kinases from the human genome (Homo sapiens, UniProt O14730); conditions: kinase RIOK3 (Entrez RIOK3)
# T23 construct: purchased Eurofin/DiscoverX
# Method in brief: as §1
# [24] = biological target: T24, 384 kinases from the human genome (Homo sapiens, UniProt Q6P3R8); conditions: kinase NEK5 (Entrez NEK5)
# T24 construct: purchased Eurofin/DiscoverX
# Method in brief: as §1
# [25] = biological target: T25, 384 kinases from the human genome (Homo sapiens, UniProt P16591); conditions: kinase FER (Entrez FER)
# T25 construct: purchased Eurofin/DiscoverX
# T25 sequence (P16591 whole entry): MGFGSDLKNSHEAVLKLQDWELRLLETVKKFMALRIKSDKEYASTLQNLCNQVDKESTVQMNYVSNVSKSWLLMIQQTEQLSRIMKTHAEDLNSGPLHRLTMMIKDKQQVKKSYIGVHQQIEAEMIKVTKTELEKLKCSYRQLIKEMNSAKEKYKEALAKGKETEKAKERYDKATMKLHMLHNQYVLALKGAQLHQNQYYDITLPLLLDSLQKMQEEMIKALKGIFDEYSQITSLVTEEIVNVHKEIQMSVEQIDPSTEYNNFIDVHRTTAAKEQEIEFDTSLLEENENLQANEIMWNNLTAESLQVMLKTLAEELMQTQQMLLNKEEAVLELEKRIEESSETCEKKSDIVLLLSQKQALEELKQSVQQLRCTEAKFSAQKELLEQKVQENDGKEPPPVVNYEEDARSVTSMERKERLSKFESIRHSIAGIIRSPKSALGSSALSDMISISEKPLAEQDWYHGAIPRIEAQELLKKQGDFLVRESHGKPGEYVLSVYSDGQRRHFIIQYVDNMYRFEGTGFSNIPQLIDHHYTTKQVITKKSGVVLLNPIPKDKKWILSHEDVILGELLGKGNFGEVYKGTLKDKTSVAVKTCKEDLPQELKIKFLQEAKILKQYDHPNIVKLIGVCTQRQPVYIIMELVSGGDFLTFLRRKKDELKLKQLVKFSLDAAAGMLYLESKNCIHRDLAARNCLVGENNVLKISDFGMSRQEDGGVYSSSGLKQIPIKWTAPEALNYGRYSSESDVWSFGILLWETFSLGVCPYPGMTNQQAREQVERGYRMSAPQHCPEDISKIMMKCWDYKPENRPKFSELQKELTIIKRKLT
# Method in brief: as §1
# [26] = biological target: T26, 384 kinases from the human genome (Homo sapiens, UniProt O75385); conditions: kinase ULK1 (Entrez ULK1)
# T26 construct: purchased Eurofin/DiscoverX
# Method in brief: as §1
# [27] = biological target: T27, 384 kinases from the human genome (Homo sapiens, UniProt Q9HAZ1); conditions: kinase CLK4 (Entrez CLK4)
# T27 construct: purchased Eurofin/DiscoverX
# Method in brief: as §1
smiles,measurement,setting,value
CC(C)C(=O)N1CCN(c2ccc(NC(=O)c3cc4ccccc4o3)cc2Cl)CC1 [Compound 21],Percent Control,[1],91%
same,Percent Control,[2],79%
same,Percent Control,[3],69%
same,Percent Control,[4],100%
same,Percent Control,[5],100%
same,Percent Control,[6],89%
same,Percent Control,[7],79%
same,Percent Control,[8],73%
same,Percent Control,[9],89%
same,Percent Control,[10],81%
same,Percent Control,[11],100%
same,Percent Control,[12],82%
same,Percent Control,[13],75%
same,Percent Control,[14],66%
same,Percent Control,[15],88%
same,Percent Control,[16],100%
same,Percent Control,[17],61%
same,Percent Control,[18],75%
same,Percent Control,[19],73%
same,Percent Control,[20],100%
same,Percent Control,[21],78%
same,Percent Control,[22],100%
same,Percent Control,[23],100%
same,Percent Control,[24],74%
same,Percent Control,[25],90%
same,Percent Control,[26],97%
same,Percent Control,[27],79%
